Measurements: the supplement of paper PMC10307832

Assays:
Experiment in all cases: relative viability (nuclei count vs DMSO), 5 days (fraction); higher = more cells survive
[1] = compound: Cc1nc(Nc2ncc(C(=O)Nc3c(C)cccc3Cl)s2)cc(N2CCN(CCO)CC2)n1 [Dasatinib] + CS(=O)(=O)N1CCN(Cc2cc3nc(-c4cccc5[nH]ncc45)nc(N4CCOCC4)c3s2)CC1 [Pictilisib] (partner 1 µM)
Method in brief: (§1)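 For relative viability, nuclei counts in treated wells were divided by those in vehicle wells. Lung cancer cell lines had been pin-tool dosed in 1536-well plates the day after seeding and cultured for 5 days, then fixed and stained in one step (final 0.05% Triton X-100, 1% formaldehyde, 1 ug/ml Hoechst) and imaged at 4×. Doses were one drug alone or a fixed anchor-drug dose plus five library-drug doses (not always all listed) in √10 steps, and values are duplicate-plate medians.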

[2] = compound: Cc1nc(Nc2ncc(C(=O)Nc3c(C)cccc3Cl)s2)cc(N2CCN(CCO)CC2)n1 [Dasatinib] + CC(=O)Nc1cccc(-n2c(=O)n(C3CC3)c(=O)c3c(Nc4ccc(I)cc4F)n(C)c(=O)c(C)c32)c1 [Trametinib] (partner 0.02 µM)
Method in brief: as §1

[3] = compound: C1CC1C(=O)NC2=NNC3=C2C=CC(=C3)C4=CC(=CC=C4)C(=O)NC5CC5 [XMD13-2] + Cc1nc(Nc2ncc(C(=O)Nc3c(C)cccc3Cl)s2)cc(N2CCN(CCO)CC2)n1 [Dasatinib] (partner 0.075 µM)
Method in brief: as §1

[4] = compound: Cc1ccc(C(=O)Nc2cccc(C(F)(F)F)c2)cc1Nc1cncc(C(N)=O)c1 [ALW-II-49-7] + CC(=O)c1c(C)c2cnc(Nc3ccc(N4CCNCC4)cn3)nc2n(C2CCCC2)c1=O [Palbociclib] (partner 0.5 µM)
Method in brief: as §1

Cell Line	relative viability ([1]; first compound 0.005 µM)	relative viability ([1]; first compound 0.01581 µM)	relative viability ([1]; first compound 0.05 µM)	relative viability ([1]; first compound 0.1581 µM)	relative viability ([1]; first compound 0.5 µM)	relative viability ([2]; first compound 0.005 µM)	relative viability ([2]; first compound 0.01581 µM)	relative viability ([2]; first compound 0.05 µM)	relative viability ([2]; first compound 0.1581 µM)	relative viability ([2]; first compound 0.5 µM)	relative viability ([3]; first compound 0.05 µM)	relative viability ([3]; first compound 0.1581 µM)	relative viability ([3]; first compound 0.5 µM)	relative viability ([3]; first compound 1.581 µM)	relative viability ([3]; first compound 5 µM)	relative viability ([4]; first compound 0.08 µM)	relative viability ([4]; first compound 0.253 µM)	relative viability ([4]; first compound 0.8 µM)	relative viability ([4]; first compound 2.53 µM)	relative viability ([4]; first compound 8 µM)
NCI-H2023	0.21	0.142	0.202	0.173	0.151	0.487	0.49	0.432	0.364	0.326	0.806	0.545	0.688	0.559	0.64	0.325	0.344	0.36	0.4	0.428
EBC-1	0.329	0.231	0.216	0.181	0.204	–	–	–	–	–	–	–	–	–	–	–	–	–	–	–
NCI-H1666	0.546	0.442	0.522	0.295	0.316	0.879	0.858	0.986	0.776	0.833	0.789	0.852	0.861	0.813	0.851	0.663	0.655	0.692	0.67	0.666
NCI-H1975	0.315	0.225	0.207	0.0981	0.201	0.364	0.25	0.272	0.232	0.177	0.444	0.361	0.467	0.324	0.393	0.608	0.58	0.459	0.59	0.44
NCI-H2170	0.286	0.234	0.257	0.265	0.203	0.929	0.828	0.834	0.651	0.365	0.791	0.518	0.601	0.55	0.541	0.367	0.451	0.381	0.403	0.364
NCI-H1355	0.452	0.233	0.397	0.297	0.282	0.48	0.346	0.5	0.293	0.265	0.847	0.839	0.79	0.695	0.61	0.372	0.428	0.376	0.4	0.436
NCI-H1648	–	–	–	–	–	0.437	0.352	0.44	0.235	0.175	–	–	–	–	–	0.241	0.251	0.264	0.246	0.251
A549	0.388	0.257	0.3	0.134	0.0986	–	–	–	–	–	–	–	–	–	–	–	–	–	–	–
SK-MES-1	0.329	0.287	0.242	0.165	0.16	0.566	0.475	0.361	0.217	0.157	0.347	0.349	0.296	0.325	0.374	0.344	0.314	0.284	0.315	0.22
